Assay results: the NIST ThermoML archive (doi:10.1021/je400951k)

C=CC(C)CCCC(C)(C)O (stereo unspecified) [2,6-dimethyl-7-octen-2-ol]
Liquid, Closed cell (Static) method
Conditions | vapor or sublimation pressure [kPa]
351.52 K | 0.82
354.37 K | 1.015
360.41 K | 1.516
365.22 K | 2.03
372.31 K | 3.024
377.4 K | 4.017
381.86 K | 5.015
388.97 K | 7.03
394.58 K | 9.035
401.82 K | 12.04
407.61 K | 15.04
415.17 K | 20.03
421.59 K | 25.04

C[C@H]1CC[C@@H]2C[C@H]1C2(C)C (racemic) [(1RS,2SR,5RS)-2,6,6-trimethylbicyclo[3.1.1]heptane]
Liquid, Closed cell (Static) method
Conditions | vapor or sublimation pressure [kPa]
330.27 K | 2.04
338.5 K | 3.03
344.71 K | 4.015
349.8 K | 4.98
357.77 K | 7.015
360.94 K | 8.015
366.78 K | 10.04
373.45 K | 13.04
379.03 K | 16.05
385.72 K | 20.04
392.24 K | 25.05
397.94 K | 30.04
407.54 K | 40.03
415.01 K | 50.03

C=CC(C)CCC=C(C)C (stereo unspecified) [3,7-dimethyl-1,6-octadiene]
Liquid, Closed cell (Static) method
Conditions | vapor or sublimation pressure [kPa]
316.5 K | 1.26
322.57 K | 1.76
327.44 K | 2.26
334.96 K | 3.26
340.66 K | 4.26
345.44 K | 5.26
349.51 K | 6.26
356.16 K | 8.25
361.68 K | 10.23
373.78 K | 16.25
379.02 K | 20.26
385.62 K | 25.26
391.11 K | 30.26

O [water]
Liquid, Closed cell (Static) method
Conditions | vapor or sublimation pressure [kPa]
292.54 K | 2.16
303.48 K | 4.43
310.23 K | 6.19
315.78 K | 8.497
319.82 K | 10.5
327.62 K | 15.71
334.02 K | 20.83
343.07 K | 30.04

C=C(C)C1CC=C(C)CC1 (stereo unspecified) [1-methyl-4-(1-methylethenyl)cyclohexene]
Liquid, Closed cell (Static) method
Conditions | vapor or sublimation pressure [kPa]
346.96 K | 3.01
353.19 K | 4.013
358.22 K | 5.008
362.25 K | 6.002
366.08 K | 7.018
369.31 K | 8.018
372.54 K | 9.043
375.27 K | 10.02
379.93 K | 12.04
386.12 K | 15.04
394.56 K | 20.01
401.29 K | 25.04
407.1 K | 30.09
416.21 K | 39.91
420.21 K | 44.8

CCCCCCCCO [octan-1-ol]
Liquid, Closed cell (Static) method
Conditions | vapor or sublimation pressure [kPa]
358.05 K | 1.088
363.99 K | 1.527
368.73 K | 2.016
381.98 K | 4.073
393.36 K | 7.08
401.09 K | 10.04
410.79 K | 15.04
418.15 K | 20.03
429.75 K | 30.2

CC(=O)O[C@@H]1C[C@H]2CC[C@]1(C)C2(C)C (relative stereo)
Liquid, Closed cell (Static) method
Conditions | vapor or sublimation pressure [kPa]
381.09 K | 2.004
390.08 K | 3.021
397.1 K | 4.013
402.69 K | 5.01
407.45 K | 6.023
411.6 K | 7.027
414.92 K | 8.014
418.66 K | 9.042
421.67 K | 10.03
427.93 K | 12.04
434.61 K | 15.02
442.35 K | 19.12
452.64 K | 26.01
457.89 K | 30.15
463.13 K | 35
468.12 K | 40.12
472.63 K | 45.25

C=C1C2CCC(C2)C1(C)C (stereo unspecified) [2,2-dimethyl-3-methylenebicyclo[2.2.1]heptane]
Conditions | vapor or sublimation pressure [kPa]
309.7 K, Metastable liquid, Closed cell (Static) method | 1.007
322.72 K, Closed cell (Static) method, Liquid | 2.026
331.06 K, Closed cell (Static) method, Liquid | 3.053
337.27 K, Closed cell (Static) method, Liquid | 4.056
342.04 K, Closed cell (Static) method, Liquid | 5.043
346.21 K, Closed cell (Static) method, Liquid | 6.007
350.07 K, Closed cell (Static) method, Liquid | 7.068
353.23 K, Closed cell (Static) method, Liquid | 8.029
355.98 K, Closed cell (Static) method, Liquid | 9.003
358.83 K, Closed cell (Static) method, Liquid | 10.07
365.69 K, Closed cell (Static) method, Liquid | 13.05
369.58 K, Closed cell (Static) method, Liquid | 15.06
378.51 K, Closed cell (Static) method, Liquid | 20.12
384.98 K, Closed cell (Static) method, Liquid | 25
390.65 K, Closed cell (Static) method, Liquid | 29.95
399.95 K, Closed cell (Static) method, Liquid | 40.04
407.61 K, Closed cell (Static) method, Liquid | 50.02
